Assay results published in patent US10287267B2, “Isoquinolin-3-yl carboxamides and preparation and use thereof” (Samumed, LLC, priority 2016, dated 2019).
Like-named read-outs stand apart in the source and are kept apart here.

How the values were obtained:
[1] = system: Tau phosphorylation at Ser396 (pSer396); assay: Tau phosphorylation assay (pSer396 ELISA / western blot) in SH-SY5Y cells; assay type: cell-based, human; conditions: Homo sapiens, read-out: pSer396 Tau EC50;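 note: EC50 for reduction of Tau pSer396 in lysed cells, measured by colorimetric ELISA or chemiluminescent western blot, both using the same pSer396 antibody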
[2] = system: Wnt pathway (Sp5-Luc reporter, TCF/LEF binding sites) in SW480 colon carcinoma cells; assay: Screening assay for Wnt activity: Sp5-Luc reporter gene assay; assay type: cell-based, human; conditions: Homo sapiens; for EC50: Sp5-Luc reporter, SW480 cells, 36 to 48 hours; for inhibition at 10 µM: SW480, read-out: percent inhibition at 10 μM;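 for all read-outs here: firefly luciferase luminescence read in stably transduced SW480 cells carrying the Sp5 promoter reporter with eight TCF/LEF sites, compounds given in 0.1% DMSO final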
Experimental: The screening assay for Wnt activity is described as follows.
Following incubation, 15 μl of BriteLite Plus luminescence reagent (Perkin Elmer) was added to each well of the 384-well assay plates. The plates were placed on an orbital shaker for 2 min and then luminescence was quantified using the Envision (Perkin Elmer) plate reader.

[3] = system: α-smooth muscle actin (αSMA) positive LL29 cells; assay: Inhibition of fibrotic process: αSMA in TGF-β1 treated primary human fibroblasts from IPF patients; assay type: cell-based; conditions: Homo sapiens, Fibroblast; for EC50: 96 h, Table 8, LL29 fibroblasts from IPF patients, TGF-β1 20 ng/mL, 4 days, dose-response 10 μM to 0.94 nM; for inhibition at 10 µM: read-out: percent value in parentheses beside EC50 >10 μM;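 for all read-outs here: controls were TGF-β1 stimulated wells with DMSO vehicle (positive) and cells given DMSO alone (negative), cultured in F12 medium with 1% fetal bovine serum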
recombinant GSK3β kinase = recombinant GSK3β kinase (Homo sapiens (Human), UniProt P49841); assay: GSK3β kinase assay (Ser/Thr 09 peptide Z-lyte FRET); assay type: biochemical; conditions: 46 μM ATP, 1 h room temperature;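 note: kinase activity read as coumarin to fluorescein emission ratio, 11-point threefold dilutions from 10 µM to 0.0003 µM in duplicate, unphosphorylated and phosphorylated peptide as 0% and 100% controls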
recombinant GSK3β kinase, sequence (P49841 whole entry): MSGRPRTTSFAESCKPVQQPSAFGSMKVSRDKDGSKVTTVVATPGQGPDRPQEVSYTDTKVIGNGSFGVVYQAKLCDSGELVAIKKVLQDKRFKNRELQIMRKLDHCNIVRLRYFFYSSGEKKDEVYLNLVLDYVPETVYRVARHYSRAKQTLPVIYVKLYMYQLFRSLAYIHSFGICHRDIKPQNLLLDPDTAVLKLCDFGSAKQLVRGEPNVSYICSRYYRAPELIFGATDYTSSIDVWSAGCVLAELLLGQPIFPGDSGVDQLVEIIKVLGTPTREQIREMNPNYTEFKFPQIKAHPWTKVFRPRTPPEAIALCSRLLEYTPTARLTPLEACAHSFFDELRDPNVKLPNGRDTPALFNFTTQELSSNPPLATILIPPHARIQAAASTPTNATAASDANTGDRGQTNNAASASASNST

[4] = molecular target: recombinant DYRK1A kinase (Homo sapiens (Human), UniProt Q13627); assay: DYRK1A kinase assay (Ser/Thr 18 peptide Z-lyte FRET); assay type: biochemical; conditions: 30 μM ATP, 1 h room temperature;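 note: Read-out is the coumarin to fluorescein emission ratio, referenced to unphosphorylated (0%) and phosphorylated (100%) Ser/Thr 18 peptide controls, values from dose-response curves by non-linear regression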
IL-6 = IL-6 inhibition in LPS-stimulated human peripheral blood mononuclear cells (HTRF); assay type: cell-based; conditions: Homo sapiens, PBMC; for inhibition at 10 µM: read-out: percent value in parentheses beside EC50 >10 μM; for EC50: Table 9, huPBMCs, LPS 50 ng/mL, 22 hours, dose-response starting from 10 μM;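 for all read-outs here: IL-6 detected by HTRF with an XL665- and Cryptate-labelled anti-IL-6 antibody pair, samples run in duplicate, EC50 obtained from a four-parameter Levenberg-Marquardt curve fit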
Experimental: After 22 hour incubation, a mixture of anti-IL6 XL665 and anti-IL-6 Cryptate diluted in reconstitution buffer (Catalog #62IL6PEC, Cisbio Inc., Bedford, Mass.) was added to each well. […] All samples were processed in duplicate. […] EC50 was determined using software generated by Dotmatics Limited (Windhill Bishops Stortford Herts, UK) using the Levenberg-Marquardt 4 parameter fitting procedure with finite different gradients.

[5] = system: SW480 colon carcinoma cells; assay: Cell viability assay (CellTiter-Glo); assay type: cell-based, human; conditions: Homo sapiens; for EC50: 96 h, SW480 cells, CellTiter-Glo, four days incubation; for inhibition at 10 µM: SW480, read-out: percent inhibition at 10 μM
[6] = SH-SY5Y cells, overnight (16-18 h) exposure

Compound: O=C(CN1CCCC1)Nc1cc2cc(-c3cnn4c3CN(CCF)CC4)ccc2cn1 [Compound 999, N-(6-(5-(2-Fluoroethyl)-4,5,6,7-tetrahydropyrazolo[1,5-a]pyrazin-3-yl)isoquinolin-3-yl)-2-(pyrrolidin-1-yl)acetamide]
- EC50 [1, 6]: 659 nM
- EC50 [2]: 3100 nM
- EC50 [3]: 779 nM
- EC50 (recombinant GSK3β kinase): 86 nM
- EC50 [4]: 20.9 nM
- inhibition at 10 µM (IL-6): 30.3%
- EC50 (IL-6): > 10 µM
- EC50 [5]: 7.51 µM

Compound: O=C(CN1C2CCC1CC2)Nc1cc2cc(-c3cnn4c3CN(CCF)CC4)ccc2cn1 [Compound 1000, 2-(7-Azabicyclo[2.2.1]heptan-7-yl)-N-(6-(5-(2-fluoroethyl)-4,5,6,7-tetrahydropyrazolo[1,5-a]pyrazin-3-yl)isoquinolin-3-yl)acetamide]
- EC50 ([1]; SH-SY5Y): 1500 nM
- EC50 [2]: 4320 nM
- EC50 [3]: 2960 nM
- EC50 (recombinant GSK3β kinase): 270 nM
- EC50 [4]: 11.1 nM
- EC50 (IL-6): 8.72 µM
- EC50 [5]: 7.29 µM

Compound: CO[C@H]1CC[C@@H](C(=O)Nc2cc3cc(-c4nnc(C)s4)ccc3cn2)CC1 [Compound 1001, cis-4-Methoxy-N-(6-(5-methyl-1,3,4-thiadiazol-2-yl)isoquinolin-3-yl) cyclohexane-1-carboxamide]
- EC50 [1, 6]: 3300 nM
- EC50 [2]: 593 nM
- EC50 [3]: 65 nM
- EC50 (recombinant GSK3β kinase): 9 nM
- EC50 [4]: 7.3 nM
- EC50 (IL-6): > 10 µM
- EC50 [5]: 0.677 µM

Compound: CC(C)CN1CCC[C@@H](C(=O)Nc2cc3cc(-c4cnn5c4CN(CCF)CC5)ccc3cn2)C1 [Compound 1002, (R)—N-(6-(5-(2-Fluoroethyl)-4,5,6,7-tetrahydropyrazolo[1,5-a]pyrazin-3-yl)isoquinolin-3-yl)-1-isobutylpiperidine-3-carboxamide]
- EC50 [1, 6]: 1900 nM
- EC50 [2]: 1920 nM
- EC50 [3]: > 10000 nM
- inhibition at 10 µM [3]: 27.5%
- EC50 (recombinant GSK3β kinase): 425 nM
- EC50 [4]: 28.5 nM
- inhibition at 10 µM (IL-6): 5.9%
- EC50 (IL-6): > 10 µM
- EC50 [5]: > 10 µM
- inhibition at 10 µM [5]: 37.6%

Compound: Cn1cc(-c2ccc3cnc(NC(=O)C4CCN(Cc5ncccn5)CC4)cc3c2)cn1 [Compound 1003, N-(6-(1-Methyl-1H-pyrazol-4-yl)isoquinolin-3-yl)-1-(pyrimidin-2-ylmethyl)piperidine-4-carboxamide]
- EC50 [1, 6]: 732 nM
- EC50 [2]: 1320 nM
- EC50 [3]: 49 nM
- EC50 (recombinant GSK3β kinase): 43 nM
- EC50 [4]: 2.1 nM
- EC50 (IL-6): 1.15 µM
- EC50 [5]: 0.804 µM

Compound: Cn1cc(-c2ccc3cnc(NC(=O)C4CCN(Cc5cnccn5)CC4)cc3c2)cn1 [Compound 1004, N-(6-(1-Methyl-1H-pyrazol-4-yl)isoquinolin-3-yl)-1-(pyrazin-2-ylmethyl)piperidine-4-carboxamide]
- EC50 [1, 6]: 667 nM
- EC50 [2]: 618 nM
- EC50 [3]: 5040 nM
- EC50 (recombinant GSK3β kinase): 37 nM
- EC50 [4]: 2 nM
- EC50 (IL-6): 1.18 µM
- EC50 [5]: 0.678 µM

Compound: Cc1nc(CN2CCC(C(=O)Nc3cc4cc(-c5cnn(C)c5)ccc4cn3)CC2)no1 [Compound 1005, 1-((5-Methyl-1,2,4-oxadiazol-3-yl)methyl)-N-(6-(1-methyl-1H-pyrazol-4-yl)isoquinolin-3-yl)piperidine-4-carboxamide]
- EC50 [1, 6]: 898 nM
- EC50 [2]: 1400 nM
- EC50 [3]: 72 nM
- EC50 (recombinant GSK3β kinase): 32 nM
- EC50 [4]: 1.5 nM
- EC50 (IL-6): 2.89 µM
- EC50 [5]: 1.13 µM

Compound: CC(C)OCC(=O)Nc1cc2cc(-c3cncn3C)ccc2cn1 [Compound 1008, 2-Isopropoxy-N-(6-(1-methyl-1H-imidazol-5-yl)isoquinolin-3-yl)acetamide]
- EC50 [1, 6]: 643 nM
- EC50 [2]: 3350 nM
- EC50 [3]: 318 nM
- EC50 (recombinant GSK3β kinase): 91 nM
- EC50 [4]: 7.5 nM
- EC50 (IL-6): 7.59 µM
- EC50 [5]: > 10 µM
- inhibition at 10 µM [5]: 37.2%

Compound: CC(C)OCCC(=O)Nc1cc2cc(-c3cncn3C)ccc2cn1 [Compound 1009, 3-Isopropoxy-N-(6-(1-methyl-1H-imidazol-5-yl)isoquinolin-3-yl) propanamide]
- EC50 [1, 6]: 68 nM
- EC50 [2]: 1110 nM
- EC50 [3]: > 10000 nM
- inhibition at 10 µM [3]: 22.4%
- EC50 (recombinant GSK3β kinase): 15 nM
- EC50 [4]: 6.2 nM
- EC50 (IL-6): 1.84 µM
- EC50 [5]: 2.35 µM

Compound: Cn1cc(-c2ccc3cnc(NC(=O)C4CCN(CC(=O)OC(C)(C)C)CC4)cc3c2)cn1 [Compound 1010, tert-Butyl 2-(4-((6-(1-methyl-1H-pyrazol-4-yl)isoquinolin-3-yl)carbamoyl)piperidin-1-yl)acetate]
- EC50 [1, 6]: 622 nM
- EC50 [2]: 2020 nM
- EC50 [3]: 103 nM
- EC50 (recombinant GSK3β kinase): 53 nM
- EC50 [4]: 2.6 nM
- EC50 (IL-6): 1.17 µM
- EC50 [5]: 3.97 µM

Compound: Cn1cc(-c2ccc3cnc(NC(=O)C4CCN(CC(=O)O)CC4)cc3c2)cn1 [Compound 1011, 2-(4-((6-(1-Methyl-1H-pyrazol-4-yl)isoquinolin-3-yl)carbamoyl)piperidin-1-yl)acetic acid]
- EC50 [1, 6]: > 10000 nM
- inhibition at 10 µM [2]: 25%
- EC50 [2]: > 10000 nM
- EC50 [3]: > 10000 nM
- inhibition at 10 µM [3]: 15.9%
- EC50 (recombinant GSK3β kinase): 30 nM
- EC50 [4]: 2.6 nM
- inhibition at 10 µM (IL-6): 15.3%
- EC50 (IL-6): > 10 µM
- EC50 [5]: > 10 µM
- inhibition at 10 µM [5]: 25%

Compound: CN1CCCN(CC(=O)Nc2cc3cc(-c4cnn(C)c4)ccc3cn2)CC1 [Compound 1012, 2-(4-Methyl-1,4-diazepan-1-yl)-N-(6-(1-methyl-1H-pyrazol-4-yl)isoquinolin-3-yl)acetamide]
- EC50 [1, 6]: 555 nM
- EC50 [2]: 2720 nM
- EC50 [3]: > 10000 nM
- inhibition at 10 µM [3]: 10.2%
- EC50 (recombinant GSK3β kinase): 155 nM
- EC50 [4]: 13 nM
- EC50 (IL-6): 3.12 µM
- EC50 [5]: 3.2 µM

Compound: Cn1cc(-c2cc3cc(NC(=O)C4CCNCC4)ncc3cc2Cl)cn1 [Compound 1013, N-(7-Chloro-6-(1-methyl-1H-pyrazol-4-yl)isoquinolin-3-yl)piperidine-4-carboxamide]
- EC50 [1, 6]: 4200 nM
- inhibition at 10 µM [2]: 42.9%
- EC50 [2]: > 10000 nM
- EC50 [3]: 2440 nM
- EC50 (recombinant GSK3β kinase): 1430 nM
- EC50 [4]: 17.1 nM
- EC50 (IL-6): 6.82 µM
- EC50 [5]: 5.5 µM

Compound: [2H]C([2H])([2H])n1cc(-c2ccc3cnc(NC(=O)CN4CCN(C)CC4)cc3c2)cn1 [Compound 1014, N-(6-(1-(Methyl-d3)-1H-pyrazol-4-yl)isoquinolin-3-yl)-2-(4-methylpiperazin-1-yl)acetamide]
- EC50 [1, 6]: 767 nM
- EC50 [2]: 2360 nM
- EC50 [3]: 695 nM
- EC50 (recombinant GSK3β kinase): 96 nM
- EC50 [4]: 9.4 nM
- EC50 (IL-6): 3.2 µM
- EC50 [5]: 5.42 µM

Compound: [2H]C([2H])([2H])n1cc(-c2cc3cc(NC(=O)CN4CCCCC4)ncc3cc2F)cn1 [Compound 1015, N-(7-Fluoro-6-(1-(methyl-d3)-1H-pyrazol-4-yl)isoquinolin-3-yl)-2-(piperidin-1-yl)acetamide]
- EC50 [1, 6]: 523 nM
- EC50 [2]: 3730 nM
- EC50 [3]: > 10000 nM
- inhibition at 10 µM [3]: 9.7%
- EC50 (recombinant GSK3β kinase): 101 nM
- EC50 [4]: 5.8 nM
- EC50 (IL-6): 3.12 µM
- EC50 [5]: 6.42 µM

Compound: [2H]C([2H])([2H])n1cc(-c2cc(F)c3cnc(NC(=O)CN4CCCCC4)cc3c2)cn1 [Compound 1016, N-(8-Fluoro-6-(1-(methyl-d3)-1H-pyrazol-4-yl)isoquinolin-3-yl)-2-(piperidin-1-yl)acetamide]
- EC50 [1, 6]: 631 nM
- EC50 [2]: 4060 nM
- EC50 [3]: 2130 nM
- EC50 (recombinant GSK3β kinase): 87 nM
- EC50 [4]: 29.1 nM
- inhibition at 10 µM (IL-6): 5.4%
- EC50 (IL-6): > 10 µM
- EC50 [5]: 6.14 µM

Compound: Cc1ncc(-c2ccc3cnc(NC(=O)[C@H]4CC[C@H](CN5CC(F)C5)CC4)cc3c2)o1 [Compound 1018, trans-4-((3-Fluoroazetidin-1-yl)methyl)-N-(6-(2-methyloxazol-5-yl)isoquinolin-3-yl)cyclohexane-1-carboxamide]
- EC50 [1, 6]: 280 nM
- EC50 [2]: 608 nM
- EC50 [3]: 88 nM
- EC50 (recombinant GSK3β kinase): 54 nM
- EC50 [4]: 2.5 nM
- EC50 (IL-6): 0.441 µM
- EC50 [5]: 0.498 µM

Compound: Cc1ncc(-c2ccc3cnc(NC(=O)CN4CCN(C)CC4)cc3c2)o1 [Compound 1019, N-(6-(2-Methyloxazol-5-yl)isoquinolin-3-yl)-2-(4-methylpiperazin-1-yl) acetamide]
- EC50 [1, 6]: 1500 nM
- EC50 [2]: 3800 nM
- EC50 [3]: 6530 nM
- EC50 (recombinant GSK3β kinase): 158 nM
- EC50 [4]: 28.9 nM
- EC50 (IL-6): 8.97 µM
- EC50 [5]: 9.38 µM

Compound: CC(C)CN1CCC(F)(C(=O)Nc2cc3cc(-c4cnc5n4CCNC5)ccc3cn2)CC1 [Compound 1021, 4-Fluoro-1-isobutyl-N-(6-(5,6,7,8-tetrahydroimidazo[1,2-a]pyrazin-3-yl)isoquinolin-3-yl)piperidine-4-carboxamide]
- EC50 [1, 6]: 5700 nM
- inhibition at 10 µM [2]: 16.5%
- EC50 [2]: > 10000 nM
- EC50 [3]: 4490 nM
- EC50 (recombinant GSK3β kinase): 1580 nM
- EC50 [4]: 42.2 nM
- inhibition at 10 µM (IL-6): 5.1%
- EC50 (IL-6): > 10 µM
- EC50 [5]: > 10 µM
- inhibition at 10 µM [5]: 11.6%

Compound: O=C(Nc1cc2cc(-c3cnn4c3CN(CCF)CC4)ccc2cn1)C1CCNCC1 [Compound 1022, N-(6-(5-(2-Fluoroethyl)-4,5,6,7-tetrahydropyrazolo[1,5-a]pyrazin-3-yl)isoquinolin-3-yl)piperidine-4-carboxamide]
- EC50 [1, 6]: 9600 nM
- EC50 [2]: 1370 nM
- EC50 [3]: 222 nM
- EC50 (recombinant GSK3β kinase): 124 nM
- EC50 [4]: 4.2 nM
- EC50 (IL-6): 3.29 µM
- EC50 [5]: 3.34 µM
